“Also recorded” adds a separate entry of the source. Starred links: 1 amine or outer side, 2 acyl side, 3 side chain; linkers in the order of their positions; H or OH if unused. Positions of bridges follow the written chain, without caps; N, C: chain ends. Non-standard residues stand in square brackets, D forms with d. Residues, ends and D or L forms follow the SMILES beside them. TBMB = c1c(C[*:1])cc(C[*:3])cc1C[*:2]; mXylylene = c1cc(C[*:1])cc(C[*:2])c1; NMeY = CN[C@@H](Cc1ccc(O)cc1)C(=O)O; Dap = NC[C@H](N)C(=O)O; Mpa = O=C(O)CCS; Sar = CNCC(=O)O
Columns and labels:
[1] = target: T1, VIPR2 (Homo sapiens, UniProt P41587); assay: Change in intracellular calcium concentration in VIPR2-expressing cells (Fluo-8), peptide co-added with VIP; format: cell-based; parameters: host or cells: purchased human VIPR2-expressing cell line; settings: VIP 150 nM, peptide 750 nM co-added, FIG. 5
T1 sequence (P41587 24-438): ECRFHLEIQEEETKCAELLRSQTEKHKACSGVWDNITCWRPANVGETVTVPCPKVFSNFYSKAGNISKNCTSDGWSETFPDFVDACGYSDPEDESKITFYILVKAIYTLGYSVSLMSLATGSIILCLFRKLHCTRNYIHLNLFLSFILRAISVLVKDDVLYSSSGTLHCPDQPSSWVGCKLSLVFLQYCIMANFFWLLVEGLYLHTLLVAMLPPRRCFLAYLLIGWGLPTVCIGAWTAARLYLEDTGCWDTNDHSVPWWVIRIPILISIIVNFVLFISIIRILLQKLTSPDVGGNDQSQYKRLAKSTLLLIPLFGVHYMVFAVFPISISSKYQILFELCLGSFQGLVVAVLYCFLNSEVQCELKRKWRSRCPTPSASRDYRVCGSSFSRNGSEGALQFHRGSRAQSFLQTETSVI
Protocol: One of the downstream signals of VIPR2 is known to be changes in intracellular calcium concentration. Human VIPR2-expressing cell line (Catalog No. HTS079RTA, manufactured by Eurofins) was treated with Scree Quest™ Fluo-8 No Wash Calcium Assay Kit (Catalog No. 36315, AAT Bioquest) to introduce Fluo-8, an indicator reagent to measure changes in intracellular calcium concentration by fluorescence. The natural ligand VIP (150 nM final concentration) and VIpep-3 (final concentration 750 nM) or representative examples of the peptides of the embodiments (Seq-1, Seq 5-9) (final concentration 750 nM) were co-added and changes in fluorescence intensity were observed over time using fluorescence microscopy. The difference between the fluorescence intensity before the addition of VIP and the strongest fluorescence intensity after the addition of VIP was taken as 100% and compared to the difference in fluorescence intensity when VIpep-3 or the inventive peptide was co-added.

[2] = Resistance to protease degradation in rat plasma (RP-HPLC peak); format: in vitro ADME; settings: 37° C., 24 hours compared to 0 hours, FIG. 6
Protocol: To confirm that the peptides of the embodiments are resistant to protease degradation compared to VIpep-3, VIpep-3 or representative peptides of the embodiments (Seq-1, Seq-6, Seq-9, or Seq-10) were mixed in rat plasma, and after a certain incubation time, the residual amount of the peptide was evaluated by the presence or absence of peaks on RP-HPLC. To 1 μL of each 10 mM peptide, 20 μL of rat plasma was added, and incubated at 37° C. for an arbitrary time (0 or 24 hours). Then, for VIpep-3, 80% acetonitrile, for the other peptides, 200 μL each of acetonitrile was added, mixed well, placed on ice for 10 minutes, and centrifuged at 15,000 rpm at 4° C. for 10 minutes to remove plasma proteins.

[3] = test system: ICR mice; assay: Novel object recognition test; format: in vivo; settings: Ro25-1553 0.07 nmol/g mixed with peptide 1 nmol/g, FIG. 9B
Protocol: We evaluated whether the peptide could improve the recognition function to novel objects, which is reduced by the activation of VIPR2. Ro25-1553 (Peptide Institute, Inc.) an analog of VIP and a selective agonist for VIPR2, was dissolved in PBS (0.07 nmol/g body weight), and then mixed at 99:1 with a representative example of the inventive peptide (Seq-10) dissolved in DMSO (1 nmol/g body weight) or DMSO (Vehicle group) (1% final concentration of DMSO). These solutions were administered subcutaneously once daily to male ICR mice on postnatal day 1 for 14 days, the mice were continuously bred and subjected to a novel object recognition test at 8 weeks of age. The novel object recognition test was conducted during the light period (8:00-20:00) according to Non-Patent Literature 12. First, test cages (30 cm×30 cm×35 cm) made of acrylic-modified polyvinyl chloride were placed in a soundproofed laboratory at an illumination level of 30 lux and covered only with wooden sterilized soft chips (Sankyo Lab Service Co.). […] The animals' behavior during the training and test trials was video-recorded, and the search time for each of the two objects was measured. The discrimination index was calculated as the ratio (%) of the search time difference between object c and object a to the total search time in the test trial.

[4] = target: T2, VIPR2 (Mus musculus, UniProt P41588); assay: VIPR2 antagonist activity in vivo: CREB phosphorylation in prefrontal cortex (Western blotting); settings: ICR mice 12 days old, male, s.c., Ro25-1553 0.4 nmol/g with peptide 1 or 10 nmol/g, 1 hour, FIG. 8
T2 construct: from tissue; host or cells: prefrontal cortex of ICR mice, 12 days old, male
T2 sequence (P41588 23-437): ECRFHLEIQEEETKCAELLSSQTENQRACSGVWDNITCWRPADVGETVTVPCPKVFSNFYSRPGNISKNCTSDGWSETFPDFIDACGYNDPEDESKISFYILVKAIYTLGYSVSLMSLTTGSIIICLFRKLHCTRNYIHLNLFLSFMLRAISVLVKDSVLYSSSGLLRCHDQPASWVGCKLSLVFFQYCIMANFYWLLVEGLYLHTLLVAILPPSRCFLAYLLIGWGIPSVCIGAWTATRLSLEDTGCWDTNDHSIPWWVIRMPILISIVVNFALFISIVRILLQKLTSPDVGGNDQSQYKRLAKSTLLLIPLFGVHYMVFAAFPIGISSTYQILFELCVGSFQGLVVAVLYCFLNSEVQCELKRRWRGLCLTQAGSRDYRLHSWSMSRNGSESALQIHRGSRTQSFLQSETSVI
Protocol: Ro25-1553 (Peptide Institute, Inc.) which is an analog of VIP and a selective agonist for VIPR2, was dissolved in PBS (0.4 nmol/g body weight), and then mixed at 9:1 with the representative example of the inventive peptide (Seq-10) dissolved in DMSO (1 nmol/g body weight or 10 nmol/g body weight) or DMSO (vehicle group) (at a final concentration of DMSO is 10%). These solutions were administered subcutaneously to ICR mice (12 days old, male). 1 hour later, brains were removed, prefrontal cortex was dissected, and the phosphorylation of intracellular cyclic AMP response sequence-binding protein (CREB) (one of the downstream signals of VIPR2) in the cells was evaluated by Western blotting. The antibodies used for Western blotting were anti-phosphorylated CREB antibody (#9198) and anti-CREB antibody (#9197) purchased from Cell Signaling Technology.

[5] = target: T1, VIPR2; assay: Selective antagonist activity: intracellular calcium change (FLIPR Tetra) in VIPR1-, VIPR2- or PAC1-expressing cells; format: cell-based; parameters: host or cells: VIPR2-expressing cells
Protocol: A representative example of any concentration of the inventive peptide (Seq-10) was added to cells expressing VIPR1-expressing cells, VIPR2-expressing cells, or PAC1-expressing cells all of which have been transfected with intracellular calcium concentration indicator and incubated for 30 minutes. Then, VIPR1 cells and VIPR 2 cells were treated with VIP (25 nM and 150 nM, respectively), and PAC1 cells were treated with PACAP (35 nM). The change in intracellular calcium concentration for 2 minutes immediately after the addition thereof was measured by FLIPR Tetra. The inhibition rate of the antagonist peptides was calculated, assuming that the change in intracellular calcium concentration when only the ligand for VIP or PACAP was added was defined as 0% inhibition, and the change in intracellular calcium concentration when both the antagonist peptide and the ligand were not added was defined as 100%.

[6] = target: T1, VIPR2; parameters: host or cells: VIPR2-expressing cells; settings: cellular studies, Non-Patent Literature 8; cited from earlier work
[7] = target: T3, extracellular domain of human VIPR2 (Homo sapiens, UniProt P41587); settings: recombinant protein, Non-Patent Literature 8; cited from earlier work
T3 sequence (P41587 24-124 limits assumed): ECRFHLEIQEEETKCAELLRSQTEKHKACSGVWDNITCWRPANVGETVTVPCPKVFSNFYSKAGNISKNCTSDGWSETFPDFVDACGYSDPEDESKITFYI

Compound	phosphorylation of CREB in prefrontal cortex [4]	antagonist activity against VIPR2-expressing cells ([5]; summary statement, Seq-10 tested with VIP 150 nM, FLIPR Tetra)	inhibition of the receptor-activating activity of VIP on VIPR2 (antagonist activity, intracellular calcium) [1]	resistance to protease degradation: peptide-derived RP-HPLC peak after incubation in rat plasma [2]	recognition of novel objects versus Ro25-1553 alone (discrimination index) ([3]; s.c. once daily 14 days from postnatal day 1, test at 8 weeks, p less than 0.001 (Student's t-test))	recognition function compared with normal mice ([3]; s.c. once daily 14 days, test at 8 weeks)	antagonist activity against VIP-VIPR2 interaction versus VIP-VIPR1 or PACAP-PAC1 interactions (selectivity) ([5]; peptide preincubated 30 minutes, VIP 25 nM (VIPR1), VIP 150 nM (VIPR2), PACAP 35 nM (PAC1), FIG. 7)	inhibition of VIP and PACAP signaling pathway through VIPR2 [6]	binding to VIPR2 extracellular region/domain [7]
CC[C@H](C)[C@H](NC(=O)[C@H](CC(C)C)NC(=O)[C@@H]1CC(=O)NCCCC[C@@H]2NC(=O)[C@@H]3CCCN3C(=O)[C@H](CC(C)C)NC(=O)[C@H](Cc3ccc(O)cc3)N(C)C(=O)CCSCc3cccc(c3)CSC[C@H](NC(=O)[C@H](CC(C)C)NC(=O)[C@H](Cc3ccc(O)cc3)NC2=O)C(=O)N1)C(N)=O [Seq-6, c(Mpa-NmeTyr-Leu-Pro-c[Lys-Tyr-Leu-Cys)-Asp]-Leu-Ile-NH2] ([Mpa][NMeY]LPKYLCDLI-NH2; linker 1-8 via mXylylene; lactam 5-9)	–	–	antagonist activity	resistance to protease degradation; also recorded: remained almost the same	–	–	–	–	–
CC[C@H](C)[C@H](NC(=O)[C@H](CC(C)C)NC(=O)[C@@H]1CC(=O)NCCCC[C@@H]2NC(=O)[C@@H]3CCCN3C(=O)[C@H](CC(C)C)NC(=O)[C@H](Cc3ccc(O)cc3)NC(=O)[C@@H]3CCCN3C(=O)[C@@H]3CCCN3C(=O)[C@@H](NC(C)=O)CSSC[C@H](NC(=O)[C@H](CC(C)C)NC(=O)[C@H](Cc3ccc(O)cc3)NC2=O)C(=O)N1)C(N)=O [Seq-10, Ac-c(Cys-Pro-Pro-Tyr-Leu-Pro-c[Lys-Tyr-Leu-Cys)-Asp]-Leu-Ile-NH2] (Ac-CPPYLPKYLCDLI-NH2; disulfide 1-10; lactam 7-11)	clearly inhibited	antagonist activity	–	resistance to protease degradation; also recorded: remained almost the same	significant improvement	almost the same as that of normal mice	significantly strong against VIP-VIPR2 interaction than those against VIP-VIPR1 or PACAP-PAC1 interactions	–	–
CC(=O)N[C@H]1CSSC[C@@H](C(=O)N[C@H](C(=O)N[C@@H](CC(C)C)C(=O)N[C@@H](CC(C)C)C(=O)N[C@@H](CC(C)C)C(=O)N[C@@H](CCCNC(=N)N)C(=O)N[C@@H](CO)C(=O)O)[C@@H](C)O)NC(=O)[C@H](CC(C)C)NC(=O)[C@H](CCCNC(=N)N)NC(=O)[C@H](CCCNC(=N)N)NC(=O)[C@@H]2CCCN2C(=O)[C@H](CC(C)C)NC(=O)[C@H](Cc2ccc(O)cc2)NC(=O)[C@@H]2CCCN2C(=O)[C@@H]2CCCN2C1=O [VIpep-3, Ac-c(Cys-Pro-Pro-Tyr-Leu-Pro-Arg-Arg-Leu-Cys)-Thr-Leu-Leu-Leu-Arg-Ser-OH] (Ac-CPPYLPRRLCTLLLRS-OH; disulfide 1-10)	–	–	inhibit the receptor-activating activity of VIP on VIPR2	greatly reduced	–	–	–	inhibits	tightly binds
c(Mpa-NmeTyr-Leu-NmeGly-c(Cys)-Tyr-Leu-Cys)-Dap-Leu-Ile-NH2 ([Mpa][NMeY]L[Sar]CYLC[Dap]LI-NH2; linker (positions not given here) via TBMB; not fully specified (bridges)) [Seq-9, cyclization TBMB(1-5-8)]	–	–	antagonist activity	resistance to protease degradation; also recorded: remained almost the same	–	–	–	–	–
c(Mpa-Pro-Pro-Tyr-Leu-Pro-c[Lys-Tyr-Leu-Cys)-Asp]-Leu-Ile-NH2 ([Mpa]PPYLPKYLCDLI-NH2; disulfide (positions not given here); lactam 7-11; not fully specified (bridges)) [Seq-1, cyclization S-S(1-10)/amide(7-11)]	–	–	antagonist activity; also recorded: inhibit the receptor-activating activity of VIP on VIPR2	resistance to protease degradation; also recorded: remained almost the same	–	–	–	–	–
